# Assay results as given in patent US9593149B2, “Amylin and calcitonin receptor agonist” (Novo Nordisk A/S, priority 2014, dated 2017).
# Numbered stars: 1 amine (or outer) side, 2 acyl side, 3 side chain; on linkers, the order of the positions; unused ones are H or OH. Peptide text beside a SMILES is read from it. * marks the point of attachment. C18 diacid = O=C(O)CCCCCCCCCCCCCCCCC(=O)*; γGlu = O=C(O)[C@H](CCC(=O)[*:2])N[*:1]; C14 diacid = O=C(O)CCCCCCCCCCCCC(=O)*; AEEA = NCCOCCOCC(=O)O
# Experiments:
# Assay (X) pK, T½ in rat = assay type: in vivo, Sprague Dawley rats
# Procedure: Assay (X)—pK—Determination of T½ in Rat
# Pharmacokinetic (PK) studies rats were conducted in order to determine the T½ of mimylin peptide after i.v. and s.c. administration.
# T½ values of the mimylin derivates of the invention is determined by pharmacokinetic studies in Sprague Dawley male rats, from Taconic Europe and the principles of laboratory animal care are followed.
# An acclimatisation period of approximately 7 days was allowed before the animals entered the study. At start of the acclimatisation period the rats were in the weight range of 250-400 g.
# The studies were conducted in an animal room which was illuminated to give a cycle of approximately 12 hours light and 12 hours darkness. The animals were group housed and had food and water ad lib. The animals were weighed on the days of dosing.
# In the present studies the test substances were administered subcutaneously or intravenously in approximately 20 nmol/kg dose. The animals received a single subcutaneous injection to the neck for subtaneous administration or directly into the tail vein for intravenous administration. Each test substance was given to typically three but in some cases two or four animals.
# A full plasma concentration-time profile, employing 8-10 sampling points, was obtained from each animal. In example blood samples were collected according to the following schedule: After subcutaneous or intravenous administration:
# At each sampling time, 0.08 to 0.10 ml of blood was drawn from each animal. The blood samples were taken in the sublingual vein via venous puncture and the use of a capillary tube.
# The blood samples were stabilised with EDTA. Blood samples were kept on ice for max 20 min. before centrifugation. Plasma was separated using centrifugation (i.e. at 4° C., 10 min., 1500G) and was immediately transferred to Micronic tubes or PCR plates. Approximately 40 μl plasma was transferred and was stored at −20° C. until assayed. The plasma samples were assayed for the content of mimylin compound by LCMS
# The plasma concentration-time profiles were analysed by a non-compartmental pharmacokinetic analysis (NCA) using Phoenix WinNonlin 6.3 (Pharsight Inc., Mountain View, Calif., USA). NCA was performed using the individual plasma concentration-time profiles from each animal. T½ is the terminal half-life=In2/λz and was determined from λz, the first order rate constant associated with the terminal (log-linear) portion of the curve, estimated by linear regression of time vs. log concentration.
# [1] = Assay (IV) determination of solubility; assay type: physicochemical
# Procedure: Assay (IV)—Determination of Solubility
# The mimylin peptide was dissolved in water at ˜500 nmol/ml and mixed 1:1 with a series of buffers (100 mM glycylglycine pH 3.0, 100 mM glycylglycine pH 4.0, 100 mM glycylglycine pH 5.0, 100 mM bistrispropane pH 6.0, 100 mM bistrispropane pH 6.5, 100 mM bistrispropane pH 7.0, 100 mM bistrispropane pH 7.5, 100 mM bistrispropane pH 8.0).
# [2] = target: T1, human amylin 3(a) receptor (human calcitonin receptor + RAMP-3), BHK570 cells (Homo sapiens, UniProt O60896+P30988); assay: Assay (II)b functional CRE-luciferase assay without albumin, human amylin receptor; assay type: cell-based; settings: Tested without HSA; read-out: hAmylin-R funct. EC50
# T1 construct: host or cells: BHK570
# T1 sequence (O60896 24-148, one chain of several): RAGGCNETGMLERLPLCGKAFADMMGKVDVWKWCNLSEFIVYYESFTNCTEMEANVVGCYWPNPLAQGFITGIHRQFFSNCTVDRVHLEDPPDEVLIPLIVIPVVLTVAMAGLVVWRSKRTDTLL
# From the text: (§1) Assay(II)b—Human Calcitonin and Amylin Receptor Assay without Albumin
# (§2) 1. Luciferase Assay Outline
# (§3) Activation of calcitonin and amylin (co-expression of calcitonin receptor and receptor activity modifying proteins (RAMP)) receptors lead to increased intracellular concentrations of cAMP. Consequently, transcription is activated by promoters containing multiple copies of the cAMP response element (CRE). It is thus possible to measure amylin activity by the use of a CRE luciferase reporter gene introduced into BHK cells also expressing calcitonin or amylin receptors.
# (§4) 2. Construction of Calcitonin (a)—and Amylin 3(a)—Receptor/CRE-Luc Cell Line.
# (§5) A BHK570 cell line was stably transfected with the human calcitonin receptor and a CRE-responsive luciferase reporter gene (Hollex-1 cell line, obtained from ZymoGenetics described in U.S. Pat. No. 5,622,839). The cell line was further transfected with RAMP-3, using standard methods. This turns the calcitonin receptor into an amylin 3(a) receptor. Methotrexate, Neomycin, and Hygromycin are selection markers for luciferase, the calcitonin receptor, and RAMP-3, respectively. To prepare the batches of frozen cells used in the luciferase assay described in the section below, the cells were cultured in growth medium (DMEM with 10% FBS, 1% Pen/Strep and 1 mM Napyruvate). […] Cells at approximately 80-90% confluence were washed with PBS and loosened from the plates with Versene. After centrifugation (2 min, 1300 rpm, in a Centrion Scientific centriuge C2 series with a BRK 5510 rotor head), the cell pellet was dissolved in 10% DMSO, 30% FBS and 60% growth medium and frozen (−80° C.) until utilization.
# (§6) The day before the experiment, BHK calcitonin (a) receptor- or amylin 3(a)-receptor/CRE-luc cells were thawed, washed twice, and seeded in 40 μl growth medium on white 384 well culture plates (4.000 cells/well). On the assay day, the cells were washed 3 times in assay media (Dulbecco media W/o phenol red, 500 ml (Gibco, 11880-028); 0.1% ovalbumin; 10 mM Hepes pH 7.4; 1× Glutamin; 1% Pen/Strep). Then, 30 μl/well of sample diluted in assay buffer was added. After 3 hours of incubation at 37° C. and 5% CO2, the reaction was terminated by adding 30 μl/well SteadyLite Plus™. The plates were shaken at 300 rpm for 5 min at RT. Then, the plates were sealed and incubated at room temperature for 30 minutes. Finally, luminescence was tested on a TopCounter (Packard) in SPC (single photon counting) mode.
# (§7) Additional Comment Regarding Use of Data Retrieved Via this Method
# (§8) For the same reasons, measurements made in Assay IIa should not be compared in Assay IIb.
# [3] = target: T2, human calcitonin (a) receptor, BHK570 cells (Homo sapiens, UniProt P30988); assay: Assay (II)a functional CRE-luciferase assay with albumin, human calcitonin receptor; assay type: cell-based; settings: Tested with HSA; read-out: hCTR funct. EC50
# T2 construct: host or cells: BHK570
# T2 sequence (P30988 25-474): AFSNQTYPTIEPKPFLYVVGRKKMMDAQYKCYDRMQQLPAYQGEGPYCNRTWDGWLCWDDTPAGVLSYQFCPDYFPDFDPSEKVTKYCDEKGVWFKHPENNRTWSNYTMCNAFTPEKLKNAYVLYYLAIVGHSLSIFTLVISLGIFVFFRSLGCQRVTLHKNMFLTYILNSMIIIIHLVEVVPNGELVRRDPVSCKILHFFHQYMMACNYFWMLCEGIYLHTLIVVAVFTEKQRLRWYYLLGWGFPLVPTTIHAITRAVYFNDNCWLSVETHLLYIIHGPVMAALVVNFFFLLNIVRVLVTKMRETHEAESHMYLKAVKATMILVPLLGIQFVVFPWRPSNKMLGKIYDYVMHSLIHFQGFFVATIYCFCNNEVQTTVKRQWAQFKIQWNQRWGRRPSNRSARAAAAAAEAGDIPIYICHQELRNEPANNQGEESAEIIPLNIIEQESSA
# From the text: Assay(II)a—Human Calcitonin and Amylin Receptor Assay
# as §2, §3, §4
# A BHK570 cell line was stably transfected with the human calcitonin receptor and a CRE-responsive luciferase reporter gene. The cell line was further transfected with RAMP-3, using standard methods. This turns the calcitonin receptor into an amylin 3(a) receptor. Methotrexate, Neomycin, and Hygromycin are selection markers for luciferase, the calcitonin receptor, and RAMP-3, respectively.
# To perform activity assays, BHK calcitonin (a) receptor- or amylin 3(a)-receptor/CRE-luc cells were seeded in white 96 well culture plates at a density of about 20.000 cells/well. […] After incubation overnight at 37° C. and 5% CO2, the growth medium was replaced by 50 μl/well assay medium (DMEM (without phenol red), Glutamax™, 10% FBS, and 10 mM Hepes, pH 7.4). Further, 50 μl/well of standard or sample in assay buffer were added.
# After 3 hours incubation at 37° C. and 5% CO2, the assay medium with standard or sample were removed and replaced by 100 μl/well PBS. Further, 100 μl/well LucLite™ was added. The plates were sealed and incubated at room temperature for 30 minutes. Finally, luminescence was tested on a TopCounter (Packard) in SPC (single photon counting) mode.
# [4] = target: T2, human calcitonin (a) receptor, BHK570 cells; assay: Assay (II)b functional CRE-luciferase assay without albumin, human calcitonin receptor; assay type: cell-based; settings: Tested without HSA; read-out: hCTR funct. EC50
# From the text: as §1, §2, §3, §4, §5, §6, §7, §8
# [5] = target: T3, human amylin receptor (human calcitonin receptor + human RAMP3), BHK tk'ts 13 cells (Homo sapiens, UniProt O60896+P30988); assay: Assay (Va) binding to the human amylin receptor (whole cell); settings: read-out: hAmylin-R binding IC50
# T3 construct: expressed in transfected cells; host or cells: BHK tk'ts 13
# T3 sequence (O60896 24-148, one chain of several): as the sequence (O60896 24-148, one chain of several) above
# Procedure: The day before the assay the cells were Seeded into Poly-D-Lysin coated 384W Opaque White, BD BioCoat plates (10000 cells/well) and Incubated overnight at 37° C., 5% CO2, 95% humidity.
compound,measurement,setting,value
"CC(C)C[C@H](NC(=O)[C@H](C)NC(=O)[C@H](C)NC(=O)[C@@H](NC(=O)[C@H](CO)NC(=O)[C@H](CC(C)C)NC(=O)[C@H](CCC(=O)O)NC(=O)[C@H](CO)NC(=O)[C@H](C)NC(=O)[C@H](CCC(=O)O)NC(=O)COCCOCCNC(=O)COCCOCCNC(=O)COCCOCCNC(=O)COCCOCCNC(=O)CC[C@H](NC(=O)CC[C@H](NC(=O)CCCCCCCCCCCCC(=O)O)C(=O)O)C(=O)O)[C@@H](C)O)C(=O)NCC(=O)N[C@@H](CCCNC(=N)N)C(=O)N[C@@H](CC(C)C)C(=O)N[C@@H](CO)C(=O)N[C@@H](C)C(=O)N[C@@H](CCC(=O)O)C(=O)N[C@@H](CC(C)C)C(=O)N[C@@H](Cc1cnc[nH]1)C(=O)N[C@@H](CCC(=O)O)C(=O)N[C@@H](CC(C)C)C(=O)N[C@@H](C)C(=O)N[C@H](C(=O)N[C@@H](CC(C)C)C(=O)N1CCC[C@H]1C(=O)N[C@@H](CCCNC(=N)N)C(=O)N[C@H](C(=O)N[C@@H](CCC(=O)O)C(=O)N[C@H](C(=O)NCC(=O)N1CCC[C@H]1C(=O)N[C@@H](CCC(=O)O)C(=O)N[C@@H](CO)C(=O)N1CCC[C@H]1C(N)=O)[C@@H](C)O)[C@@H](C)O)[C@@H](C)O [compound 5, [N-terminal(C14 diacid-2xgGlu-4xOEG)]mimylin] ({C14 diacid-γGlu-γGlu-AEEA-AEEA-AEEA-AEEA}-EASELSTAALGRLSAELHELATLPRTETGPESP-NH2)",PK rat iv T½,"Assay (X) pK, T½ in rat; i.v.",6 h
same,PK rat sc T½,"Assay (X) pK, T½ in rat; s.c.",13 h
same,Solubility,[1]; pH 3.0,≧200 μM
same,Solubility,[1]; pH 4.0,≧200 μM
same,Solubility,[1]; pH 5.0,≧200 μM
same,Solubility,[1]; pH 6.0,≧200 μM
same,Solubility,[1]; pH 6.5,≧200 μM
same,Solubility,[1]; pH 7.0,≧200 μM
same,Solubility,[1]; pH 7.5,≧200 μM
same,Solubility,[1]; pH 8.0,≧200 μM
"CC(C)C[C@H](NC(=O)[C@H](CCCCN)NC(=O)CNC(=O)[C@H](CC(C)C)NC(=O)[C@@H](NC(=O)[C@@H]1CSSC[C@H](N)C(=O)N[C@@H](CO)C(=O)N[C@@H](CC(N)=O)C(=O)N[C@@H](CC(C)C)C(=O)N[C@@H](CO)C(=O)N[C@@H]([C@@H](C)O)C(=O)N1)C(C)C)C(=O)N[C@@H](CO)C(=O)N[C@@H](CCC(N)=O)C(=O)N[C@@H](CCC(=O)O)C(=O)N[C@@H](CC(C)C)C(=O)N[C@@H](Cc1c[nH]cn1)C(=O)N[C@@H](CCCCN)C(=O)N[C@@H](CC(C)C)C(=O)N[C@@H](CCC(N)=O)C(=O)N[C@H](C(=O)N[C@@H](Cc1ccc(O)cc1)C(=O)N1CCC[C@H]1C(=O)N[C@@H](CCCNC(=N)N)C(=O)N[C@H](C(=O)N[C@@H](CC(N)=O)C(=O)N[C@H](C(=O)NCC(=O)N[C@@H](CO)C(=O)NCC(=O)N[C@H](C(=O)N1CCC[C@H]1C(N)=O)[C@@H](C)O)[C@@H](C)O)[C@@H](C)O)[C@@H](C)O [Salmon calcitonin, reference compound]",half-life,"Assay (X) pK, T½ in rat; male, Sprague Dawley, plasma, sc, 20 nmol/kg",1 h
"CC(C)C[C@H](NC(=O)[C@H](CCCNC(=N)N)NC(=O)CNC(=O)[C@@H](NC(=O)[C@@H](NC(=O)[C@H](C)NC(=O)[C@@H](NC(=O)[C@H](CO)NC(=O)[C@@H](NC(=O)[C@H](CCC(=O)O)NC(=O)[C@H](CO)NC(=O)[C@H](C)NC(=O)CC[C@H](NC(=O)CCCCCCCCCCCCCCCCC(=O)O)C(=O)O)C(C)C)[C@@H](C)O)C(C)C)C(C)C)C(=O)N[C@@H](CO)C(=O)N[C@@H](C)C(=O)N[C@@H](CCC(=O)O)C(=O)N[C@@H](CC(C)C)C(=O)N[C@@H](Cc1c[nH]cn1)C(=O)N[C@@H](CCC(=O)O)C(=O)N[C@H](C(=O)N[C@@H](C)C(=O)N[C@H](C(=O)N[C@@H](CC(C)C)C(=O)N1CCC[C@H]1C(=O)N[C@@H](CCCNC(=N)N)C(=O)N[C@H](C(=O)N[C@@H](CCC(=O)O)C(=O)N[C@H](C(=O)NCC(=O)N[C@@H](CO)C(=O)NCC(=O)N[C@@H](CO)C(=O)N1CCC[C@H]1C(N)=O)[C@@H](C)O)[C@@H](C)O)[C@@H](C)O)C(C)C [compound 102, [N-terminal(C18 diacid-gGlu), des1, 5V, 9V, 10V, 20V, 30S, 31G]mimylin] ({C18 diacid-γGlu}-ASEVSTAVVGRLSAELHEVATLPRTETGSGSP-NH2)",EC50,[2],0.012 nM
same,solubility at 18 h,"[1]; bistrispropane buffer, pH 6.5",≥ 200 µM
same,solubility at 18 h,"[1]; bistrispropane buffer, pH 7.5",≥ 200 µM
same,solubility at 18 h,"[1]; bistrispropane buffer, pH 6.0",≥ 200 µM
same,solubility at 18 h,"[1]; bistrispropane buffer, pH 7.0",≥ 200 µM
same,solubility at 18 h,"[1]; bistrispropane buffer, pH 8.0",≥ 200 µM
same,solubility at 18 h,"[1]; glycylglycine buffer, pH 3.0",6 µM
same,solubility at 18 h,"[1]; glycylglycine buffer, pH 5.0",≥ 200 µM
same,EC50,[3],0.028 nM
same,EC50,[4],0.006 nM
same,IC50,[5],1.65 nM
